In US6169181A, “Compounds useful to treat retroviral infections” (Pharmacia & Upjohn Company, priority 1998, dated 2001):
“And” between values parts separate entries of the source, which are not always exact repeats. Identical values can stand only once. Like-named read-outs stand apart in the source and are kept apart here.

What was measured:
HIV-1 protease = HIV-1 protease (Human immunodeficiency virus type 1 group M subtype B, UniProt P04585); assay: biochemical
Procedure, shortened: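 Percent inhibition came from fluorescence of FITC-tagged cleavage product, separated by filtration from uncleaved substrate captured on streptavidin-coated beads. The enzyme (10 μl of 0.1 μM) and compound acted on a biotin/FITC dual-labelled peptide for one hour at room temperature in the dark. The reaction ran in 0.1 M sodium acetate, pH 5.5, with 1.0 M NaCl and 0.05% NP-40.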

[1] = target: T1, single chain tethered (tandem) HIV protease (HIV-1 M:B_HXB2R, UniProt P04585); assay: Tandem HIV protease assay; format: biochemical; conditions: Table II, enzyme HIV1TANDEM; for Ki: read-out: FITC KI
T1 construct: purified enzyme, FITC/biotin substrate assay
Description: In the enzyme inhibition assay described above, the sensitivity of Ki value determination is in part limited by the ability to continue to lower the enzyme concentration for compounds with high binding affinity. To prevent de-dimerization at low enzyme concentration, a tandemly linked enzyme is prepared in which the two monomers are covalently linked by an appropriate stretch of amino acid residues. Using the latter enzyme, the sensitivity of the inhibition assay is improved since much lower enzyme concentration can be utilized, as compared to the condition using the wild-type enzyme.
The starting inhibitor concentrations are determined based on preliminary enzyme inhibition screening results which estimate the expected potency of the inhibitor. Inhibitor concentrations are then prepared using the Biomek 1000 (Beckman) and the Quadra 96 (Tomtec). Substrate (biotinylated at the amino terminal arginine and fluorescently labeled with fluorescein at the carboxyl terminal lysine), inhibitor and the tandem enzyme are allowed to react in solution at pH 5.5 (buffers identical to those used with the native dimeric enzyme) in the dark for 96 hours. Streptavidin coated polystyrene beads are added to stop the reaction. The labeled cleavage product is separated from unreacted substrate via filtration. Residual fluorescence is quantitated with the Idexx SM2000 (Idexx) and the resulting data are analyzed using the NLLSF program.

[2] = Table II, enzyme HIV-1, DOSE 0.123 (unit not given)
[3] = Table II, enzyme HIV-1, DOSE 0.370 (unit not given)
[4] = Table II, enzyme HIV-1, DOSE 1.100 (unit not given)
[5] = Table II, enzyme HIV-1, DOSE 3.300 (unit not given)
[6] = Table II, enzyme HIV-1, DOSE 10.000 (unit not given)
[7] = Table II, enzyme HIV-1, DOSE 30.000 (unit not given)

For CC(C)CC1(CC(C)C)CC(O)=C(C(c2cccc(NS(=O)(=O)c3cn(C)cn3)c2)C(C)(C)C)C(=O)O1 (racemic) [Example 305, N-[3-(1-[5,6-Dihydro-6,6-diisobutyl-4-hydroxy-2-oxo-2H-pyran-3-yl]-2,2-dimethylpropyl)-phenyl]-1-methyl-1H-imidazole-4-sulfonamide], the “PROTEASE % INHIB.” value (HIV-1 protease; [2]) was 99.99%, the “PROTEASE % INHIB.” value (HIV-1 protease; [3]) was 110.76% and the “PROTEASE % INHIB.” value (HIV-1 protease; [4]) was 114.35%. The “PROTEASE % INHIB.” value (HIV-1 protease; [5]) was 110.88%, the “PROTEASE % INHIB.” value (HIV-1 protease; [6]) was 102.01% and the “PROTEASE % INHIB.” value (HIV-1 protease; [7]) was 57.83%. It also gave a Ki [1] of 0.4 nM.

In the case of CC(C)CC1(CC(C)C)CC(O)=C(C(c2cccc(NS(=O)(=O)c3ccc(C#N)cn3)c2)C(C)(C)C)C(=O)O1 (racemic) [Example 306, 5-Cyano-N-[3-(1-[5,6-dihydro-6,6-diisobutyl-4-hydroxy-2-oxo-2H-pyran-3-yl]-2,2-dimethylpropyl)-phenyl]-2-pyridinesulfonamide], the “PROTEASE % INHIB.” value (HIV-1 protease; [2]) is reported as 71.79%, the “PROTEASE % INHIB.” value (HIV-1 protease; [3]) is reported as 82.71% and the “PROTEASE % INHIB.” value (HIV-1 protease; [4]) is reported as 89.3%. The “PROTEASE % INHIB.” value (HIV-1 protease; [5]) was 97.29%, the “PROTEASE % INHIB.” value (HIV-1 protease; [6]) was 82.59% and the “PROTEASE % INHIB.” value (HIV-1 protease; [7]) was 53.43%. It also gave a Ki [1] of 0.04 nM.

With Cn1cnc(S(=O)(=O)Nc2cccc(C(C3=C(O)CC(CCc4ccccc4)(CCC(F)(F)F)OC3=O)C(C)(C)C)c2)c1 (single isomer, unassigned) [Example 270, N-[3-(R or S)-[1-[5,6-dihydro-4-hydroxy-2-oxo-6-(R or S)-(2-phenethyl)-6-(3,3,3-trifluoropropyl)-2H-pyran-3-yl]-2,2-dimethylpropyl]phenyl]-1-methyl-1H-imidazole-4-sulfonamide] the “PROTEASE % INHIB.” value (HIV-1 protease; [2]) was 75.26%, the “PROTEASE % INHIB.” value (HIV-1 protease; [3]) was 85.62% and the “PROTEASE % INHIB.” value (HIV-1 protease; [4]) was 93.45%. For the same compound, the “PROTEASE % INHIB.” value (HIV-1 protease; [5]) was 96.62%, the “PROTEASE % INHIB.” value (HIV-1 protease; [6]) was 94.57% and the “PROTEASE % INHIB.” value (HIV-1 protease; [7]) was 82.67%. The Ki [1] was 0.024 nM.

Cn1cnc(S(=O)(=O)Nc2cccc(C(C3=C(O)CC(CCc4ccccc4)(CCC(F)(F)F)OC3=O)C(C)(C)C)c2)c1 (single isomer, unassigned) [Example 273, N-[3-(R or S)-[1-[5,6-dihydro-4-hydroxy-2-oxo-6-(R or S)-(2-phenethyl)-6-(3,3,3-trifluoropropyl)-2H-pyran-3-yl]-2,2-dimethylpropyl]phenyl]-1-methyl-1H-imidazole-4-sulfonamide] was tested, and the “PROTEASE % INHIB.” value (HIV-1 protease; [2]) was under 10%, the “PROTEASE % INHIB.” value (HIV-1 protease; [3]) was 23.24% and the “PROTEASE % INHIB.” value (HIV-1 protease; [4]) was 75.38%. The “PROTEASE % INHIB.” value (HIV-1 protease; [5]) was 94.63%, the “PROTEASE % INHIB.” value (HIV-1 protease; [6]) was 95.93% and the “PROTEASE % INHIB.” value (HIV-1 protease; [7]) was 91%. The Ki [1] was 2.3 nM.

With Cn1cnc(S(=O)(=O)Nc2cccc(C(C3=C(O)CC(CCc4ccccc4)(CCC(F)(F)F)OC3=O)C(C)(C)C)c2)c1 (single isomer, unassigned) [Example 276, N-[3-(R or S)-[1-[5,6-dihydro-4-hydroxy-2-oxo-6-(R or S)-(2-phenethyl)-6-(3,3,3-trifluoropropyl)-2H-pyran-3-yl]-2,2-dimethylpropyl]phenyl]-1-methyl-1H-imidazole-4-sulfonamide] the “PROTEASE % INHIB.” value (HIV-1 protease; [2]) was 16.49%, the “PROTEASE % INHIB.” value (HIV-1 protease; [3]) was 38.95% and the “PROTEASE % INHIB.” value (HIV-1 protease; [4]) was 66.1%. The “PROTEASE % INHIB.” value (HIV-1 protease; [5]) was 90.01%, the “PROTEASE % INHIB.” value (HIV-1 protease; [6]) was 90.97% and the “PROTEASE % INHIB.” value (HIV-1 protease; [7]) was 87.6%. The Ki [1] was 33 nM.

With CCCC1(CCc2ccccc2)CC(O)=C(C(c2cccc(NS(=O)(=O)c3ccccn3)c2)C(C)(C)C)C(=O)O1 (single isomer, unassigned) [Example 278, N-[3-(R or S)-[1-[5,6-dihydro-4-hydroxy-2-oxo-6-(2-phenethyl)-[6-(R or S)-propyl]-2H-pyran-3-yl]-2,2-dimethylpropyl]phenyl]-2-pyridinesulfonamide] the “PROTEASE % INHIB.” value (HIV-1 protease; [2]) was 76.76%, the “PROTEASE % INHIB.” value (HIV-1 protease; [3]) was 86.99% and the “PROTEASE % INHIB.” value (HIV-1 protease; [4]) was 95.6%. The “PROTEASE % INHIB.” value (HIV-1 protease; [5]) was 96.91%, the “PROTEASE % INHIB.” value (HIV-1 protease; [6]) was 93.32% and the “PROTEASE % INHIB.” value (HIV-1 protease; [7]) was 86.18%. The Ki [1] was 0.04 nM.

With CCCC1(CCC)CC(O)=C(C(c2cccc(NS(=O)(=O)c3ccc(C(F)(F)F)cn3)c2)C(C)(C)C)C(=O)O1 (single isomer, unassigned) [Example 285, 5-Trifluoromethyl-N-[3-(R or S)-[1-[4-hydroxy-2-oxo-6,6-di-n-propyl-5,6-dihydro-2H-pyran-3-yl]-2,2-dimethylpropyl]-phenyl]-2-pyridinesulfonamide] the “PROTEASE % INHIB.” value (HIV-1 protease; [2]) was 81.8%, the “PROTEASE % INHIB.” value (HIV-1 protease; [3]) was 95.8% and the “PROTEASE % INHIB.” value (HIV-1 protease; [4]) was 99.11%. For the same compound, the “PROTEASE % INHIB.” value (HIV-1 protease; [5]) was 109.33%, the “PROTEASE % INHIB.” value (HIV-1 protease; [6]) was 104.61% and the “PROTEASE % INHIB.” value (HIV-1 protease; [7]) was 86.84%. For the same compound, the Ki [1] was 0.015 nM.

With CCCC1(CCC)CC(O)=C(C(c2cccc(NS(=O)(=O)c3ccc(C(F)(F)F)cn3)c2)C(C)(C)C)C(=O)O1 (single isomer, unassigned) [Example 286, 5-Trifluoromethyl-N-[3-(R or S)-[1-[4-hydroxy-2-oxo-6,6-di-n-propyl-5,6-dihydro-2H-pyran-3-yl]-2,2-dimethylpropyl]-phenyl]1-2-pyridinesulfonamide] the “PROTEASE % INHIB.” value (HIV-1 protease; [2]) was 34.76%, the “PROTEASE % INHIB.” value (HIV-1 protease; [3]) was 68.74% and the “PROTEASE % INHIB.” value (HIV-1 protease; [4]) was 89.29%. The “PROTEASE % INHIB.” value (HIV-1 protease; [5]) was 93.11%, the “PROTEASE % INHIB.” value (HIV-1 protease; [6]) was 108.17% and the “PROTEASE % INHIB.” value (HIV-1 protease; [7]) was 95.31%. For the same compound, the Ki [1] was 13.3 nM.

With CCC[C@@]1(CCc2ccccc2)CC(O)=C([C@@H](c2cccc(NS(=O)(=O)c3ccc(C#N)cn3)c2)C(C)(C)C)C(=O)O1 (single isomer, unassigned) [Example 300, 5-Cyano-N-[3(R or S)-(1-[5,6-dihydro-4-hydroxy-2-oxo-6(R or S)-(2-phenylethyl)-6-propyl-2H-pyran-3-yl]-2,2-dimethylpropyl)-phenyl]-2-pyridinesulfonamide] the “PROTEASE % INHIB.” value (HIV-1 protease) was 90.61 and 99.05 and 111.45 and 109.19 and 105.56 and 104.91 and the Ki [1] was 0.1 nM.

CCCC1(CCc2ccccc2)CC(O)=C(C(c2cccc(NS(=O)(=O)c3cn(C)cn3)c2)C(C)(C)C)C(=O)O1 (single isomer, unassigned) [Example 307, N-[3(R or S)-[1-(5,6-Dihydro-4-hydroxy-2-oxo-6(R or S)-[2-phenylethyl]-6-propyl-2H-pyran-3-yl)-2,2-dimethylopropyl]phenyl]-1-methyl-1H-imidazole-4-sulfonamide] was tested, and the “PROTEASE % INHIB.” value (HIV-1 protease; [2]) was 77.39%, the “PROTEASE % INHIB.” value (HIV-1 protease; [3]) was 99.85% and the “PROTEASE % INHIB.” value (HIV-1 protease; [4]) was 107.87%. For the same compound, the “PROTEASE % INHIB.” value (HIV-1 protease; [5]) was 93.34%, the “PROTEASE % INHIB.” value (HIV-1 protease; [6]) was 83.49% and the “PROTEASE % INHIB.” value (HIV-1 protease; [7]) was 69.74%. It also gave a Ki [1] of 0.072 nM.

Compound CCC[C@@]1(CCc2ccc(F)cc2)CC(O)=C([C@H](CC)c2cccc(NS(=O)(=O)c3cn(C)cn3)c2)C(=O)O1 (single isomer, unassigned) [Example 368, N-[3-{1(R or S)-(4-Hydroxy-5,6-dihydro-2-oxo-6(R or S)-(2-(4-fluorophenyl)ethyl)-6-propyl-2H-pyran-3-yl)propyl}phenyl]-1-methyl-1H-imidazole-4-sulfonamide] has a Ki [1] of 0.232 nM.

In the case of CCCC1(CCc2ccccc2)CC(O)=C([C@@H](CC)c2cccc(NS(=O)(=O)c3ccc(C(F)(F)F)cn3)c2)C(=O)O1 (stereo partly drawn) [Example 374, N-[3-[1-(S)-[5,6,-Dihydro-4-hydroxy-2-oxo-6-(2-phenylethyl)-6-propyl-2H-pyran-3-yl]propyl]phenyl]-5-(triflouromethyl)-2-pyridinesulfonamide], the “PROTEASE % INHIB.” value ([1]; DOSE 0.123 (unit not given)) is reported as 78.97%, the “PROTEASE % INHIB.” value ([1]; DOSE 0.370 (unit not given)) is reported as 82.14% and the “PROTEASE % INHIB.” value ([1]; DOSE 1.100 (unit not given)) is reported as 84.98%. For the same compound, the “PROTEASE % INHIB.” value ([1]; DOSE 3.300 (unit not given)) was 87.70%, the “PROTEASE % INHIB.” value ([1]; DOSE 10.000 (unit not given)) was 95.25% and the “PROTEASE % INHIB.” value ([1]; DOSE 30.000 (unit not given)) was 80.11%. It also gave a Ki [1] of 0.031 nM.
